{"source": "patent US10596173B2", "about": "“Combination therapy of an HBV capsid assembly inhibitor and an interferon” (Hoffmann-La Roche Inc., priority 2015, dated 2020)", "key": {"HBV [1]": {"test_system": "HBV", "test": "Combination study with Roferon in HBV infected HepaRG cells: HBV DNA in supernatant by qPCR, CalcuSyn and isobologram analysis", "format": "cell-based, HBV (genotype D)", "details": "for Overall CI: average of CI at 50%, 75% and 90%; for EC50: Hepatitis B virus, HepaRG", "experimental": "HepG2.2.15 cells were cultured in DMEM+Glutamax I medium (Gibco, #21885) supplemented with 10% FBS, 1% Pen/Strep (Gibco, #15140) and G-418 ([…]) and used for production of infectious HBV (genotype D). 90% confluent cells from three T175 flasks were trypsinized and transferred into one collagen coated hyperflask (550 mL). Once the cells were confluent, medium was changed to DMEM+Glutamax I medium with 1% DMSO and 2.5% FBS. Once the cells were slightly over confluent, medium was changed to DMEM/F12+Glutamax I medium (Gibco, #31331) supplemented with MEM non-essential aminoacids (6 mL, Gibco, #11140), P/S (6 mL), sodium pyruvate (6 mL), DMSO (9 mL) and FBS (10 mL) (all per 500 mL medium). Medium was changed every 3 days and supernatants were harvested for 2 weeks. Virus was concentrated from supernatants by PEG precipitation and the titer (genome equivalent (GE)/mL) was determined by qPCR. Briefly, supernatants were mixed with 40% PEG solution at a ratio of 4:1, incubated on a shaker at 4° C. overnight and then centrifuged using 50 mL falcon tubes at 4° C. for one hour at 3724 g (RCF). The supernatant was discarded and the centrifugation step was repeated with new supernatant reusing the tubes until all PEG-precipitated supernatant was processed. The pellets were re-suspended in William's E Medium (Gibco, #22551) at a concentration of 10^7-10^9 genome equivalents (GE) per ml and frozen at −80° C. DNA copy number calculation was based on a standard curve generated from HBV plasmid dilutions with known concentrations.\nHepaRG cells (Biopredic International, Saint-Gregoire, France) were cultured in working growth medium (500 mL Willams E Medium with 50 mL HepaRG Growth supplement from Biopredic, 5 mL Glutamax-I (Gibco, #35050) and 5 mL Pen/Strep) for 2 weeks. After 2 weeks, medium was changed to differentiation medium containing 1.8% DMSO (500 mL Willams E Medium with 50 mL HepaRG Growth supplement from Biopredic, 5 mL Pen/Strep, 5 mL Glutamax-I and 9 mL DMSO). Medium was changed twice a week up to 2 weeks. Once fully differentiated, cells were trypsinized and seeded into collagenated 96-well plates (50,000 cells/well in 100 μL) or 24-well plates (300,000 cells/well in 500 μL) in differentiation medium. Cells were cultured at least 5 days in the plates before they were infected with HBV.\nThe combination experimental results were analyzed using the model described by Craig et al. (Craig J, Duncan I, Whittaker L and Roberts N. (1990). Antiviral synergy between inhibitors of HIV proteinase and reverse transcriptase. Antiviral Chem. Chemother. 4:161-166). EC50 values were obtained for compounds used alone and in combination with others. To relate these two values and describe the degree of synergy/additivity/antagonism between them, the Fractional Inhibitory Concentration (FIC) was first calculated and used to generate isobolograms. Briefly, the FIC is the ratio of the EC50 of the drug in combination to the EC50 of the drug on its own: FIC=ratio[EC50combination:EC50alone]\nThe Combination Index (CI), obtained by adding the FICs of the two compounds, was then used to describe the effect between compounds used in the combinations. A CI<1 means synergism, a CI=1 means additivity and a CI>1 means antagonism.\nEach experiment was performed in at least triplicate and performed independently 3 times. Mean percent inhibition of HBV replication based on DNA copy number was calculated from all experiments and analyzed using the Calcusyn software (CalcuSyn Version 2.11, Biosoft, Cambridge, UK) based on the Loewe additivity model described by Chou and Talalay (Chou T C (2006). Theoretical basis, experimental design, and computerized simulation of synergism and antagonism in drug combination studies. Pharmacol. Rev., 58:621-681). For the CalcuSyn evaluation, data from three diagonal lanes with a constant concentration ratio for the drug combinations of each lane from the checkerboard plate were used (marked in bold in Table 2). […]"}, "HBV [2]": {"test_system": "HBV", "details": "HBV infected transgenic mouse model or humanized mouse models; cited from earlier work"}, "[3]": {"test_system": "HBV infected HepaRG cells", "test": "CellTiter-Glo cell viability assay of HBV infected and treated HepaRG cells", "format": "cell-based", "details": "individual compound at maximum concentration, day 11 post infection", "experimental": "Cell viability of the HBV infected and treated HepaRG cells was determined at day 11 post infection using the CellTiter-Glo® Luminescent Cell Viability Assay (Promega, Cat. No. G7572). 100 μL of CTG reagent were added to each well of the cells, incubated for 10 min and 80 μL of each well were transferred to a new white 96 well plate. Luminescence (0.2 sec) was measured using an Envision reader (PerkinElmer)."}, "[4]": {"details": "CalcuSyn, HBV DNA, molar ratio 1:0.3"}, "[5]": {"details": "CalcuSyn, HBV DNA, molar ratio 1:1"}, "[6]": {"details": "CalcuSyn, HBV DNA, molar ratio 1:3"}, "[7]": {"details": "individual compound, HBV infected HepaRG cells, HBV DNA, mean of n independent experiments"}}, "note": "Values joined by “and” are separate entries in the source; they are usually repeats but may differ in a detail not shown here. Equal entries are not always repeated."}
{"compound": "Nc1ccn([C@@H]2CS[C@H](CO)O2)c(=O)n1", "note": "[3TC and 3TC]", "values": [{"measurement": "CI value at 50% HBV inhibition", "setting": "HBV [1]; [4]", "result": "1.12 ± 0.24"}, {"measurement": "CI value at 75% HBV inhibition", "setting": "HBV [1]; [4]", "result": "1.05 ± 0.16"}, {"measurement": "CI value at 90% HBV inhibition", "setting": "HBV [1]; [4]", "result": "1.02 ± 0.11"}, {"measurement": "CI value at 50% HBV inhibition", "setting": "HBV [1]; [5]", "result": "0.98 ± 0.12"}, {"measurement": "CI value at 75% HBV inhibition", "setting": "HBV [1]; [5]", "result": "1.00 ± 0.14"}, {"measurement": "CI value at 90% HBV inhibition", "setting": "HBV [1]; [5]", "result": "1.06 ± 0.11"}, {"measurement": "CI value at 50% HBV inhibition", "setting": "HBV [1]; [6]", "result": "1.02 ± 0.22"}, {"measurement": "CI value at 75% HBV inhibition", "setting": "HBV [1]; [6]", "result": "1.03 ± 0.22"}, {"measurement": "CI value at 90% HBV inhibition", "setting": "HBV [1]; [6]", "result": "1.08 ± 0.21"}, {"measurement": "Overall CI", "setting": "HBV [1]; CalcuSyn, molar ratio 1:0.3", "result": "1.06 ± 0.16"}, {"measurement": "Overall CI", "setting": "HBV [1]; CalcuSyn, molar ratio 1:1", "result": "1.02 ± 0.11"}, {"measurement": "Overall CI", "setting": "HBV [1]; CalcuSyn, molar ratio 1:3", "result": "1.04 ± 0.19"}, {"measurement": "Assessment of combination effect", "setting": "HBV [1]; CalcuSyn, based on overall CI values", "result": "additivity"}]}
{"compound": "COC(=O)C1=C(C)NC(c2ncc(F)cc2F)=N[C@H]1c1ccc(F)cc1Cl", "note": "[Bay 41-4109]", "values": [{"measurement": "in vivo efficacy", "setting": "HBV [2]", "result": "demonstrated in vivo efficacy with HBV DNA reduction"}]}
{"compound": "COC(=O)C1=C(CN2CCOC[C@H]2C(=O)O)N=C(c2nccs2)N[C@H]1c1ccc(F)cc1Cl", "note": "[Compound 1, (S)-4-[(R)-6-(2-Chloro-4-fluoro-phenyl)-5-methoxycarbonyl-2-thiazol-2-yl-3,6-dihydro-pyrimidin-4-ylmethyl]-morpholine-3-carboxylic acid]", "values": [{"measurement": "% cell viability at max concentration ± SD (n)", "setting": "[3]", "result": "96.8 ± 4.2 (3) %"}, {"measurement": "EC50", "setting": "HBV [1]; [7]", "result": 21.2, "unit": "nM"}]}
{"compound": "Nc1ccn([C@@H]2CS[C@H](CO)O2)c(=O)n1", "note": "[Compound 3TC, Lamivudine]", "values": [{"measurement": "% cell viability at max concentration ± SD (n)", "setting": "[3]", "result": "86.4 ± 2.6 (3) % and 104.5 ± 2.6 (3) %"}, {"measurement": "EC50", "setting": "HBV [1]; [7]", "result": 12.9, "unit": "nM"}]}
{"compound": "CCOC(=O)C1=C(CN2CCN3C(=O)N(CC(C)(C)C(=O)O)C[C@@H]3C2)NC(c2nccs2)=N[C@H]1c1cccc(F)c1C", "note": "[Compound 4, 3-[(8aS)-7-[[(4S)-5-ethoxycarbonyl-4-(3-fluoro-2-methyl-phenyl)-2-thiazol-2-yl-1,4-dihydropyrimidin-6-yl]methyl]-3-oxo-5,6,8,8a-tetrahydro-1H-imidazo[1,5-a]pyrazin-2-yl]-2,2-dimethyl-propanoic acid]", "values": [{"measurement": "% cell viability at max concentration ± SD (n)", "setting": "[3]", "result": "96.1 ± 14.5 (3) %"}, {"measurement": "EC50", "setting": "HBV [1]; [7]", "result": 8.7, "unit": "nM"}]}
{"compound": "interferon alfa-2a [Roferon]", "values": [{"measurement": "EC50 ± SD (n)", "setting": "HBV [1]; [7]", "result": "0.9 IU/mL ± 0.5 (3) and 1.8 IU/ml ± 1.7 (3) IU/mL"}]}
